Here are results for one compound from US20210198201A1, “Orally Active Melanocortin Receptor-4 Compounds” (Palatin Technologies, Inc., priority 2018, published 2021).

What is called Ki is a measure of affinity in units of concentration, obtained from inhibition or displacement. As a reminder, the EC50 is the concentration that produces a half-maximal response. Low values mean a more potent agent, high ones a less potent agent.

Assay [1] addresses T1, MC1r (Homo sapiens, UniProt Q01726).
T1 construct: expressed in transfected cells; host or cells: HEK-293 (membrane homogenates)
The assay is described as follows: Competitive inhibition binding assay, MC1r. Particulars: binding studies. The protocol: (§1) A competitive inhibition binding assay is performed using membrane homogenates prepared from HEK-293 cells that express recombinant hMC1ra, hMC4r, hMC3r, or hMC5r, and from B16-F10 mouse melanoma cells (containing endogenous MC1r). In the examples that follow, all values are for human recombinant receptors unless otherwise noted. Assays are performed in 96 well GF/B Millipore multiscreen filtration plates (MAFB NOB10) pre-coated with 0.5% bovine serum albumin (Fraction V). […] After incubation for 60 to 90 minutes at 37° C., the assay mixture is filtered and the membranes washed three times with ice-cold buffer. Filters are dried and counted in a gamma counter for bound radioactivity.
(§2) Maximal specific binding (100%) is defined as the difference in radioactivity (cpm) bound to cell membranes in the absence and presence of 1 μM NDP-α-MSH. […] Each assay is conducted in duplicate or triplicate and the actual mean values are described, with results less than 0% reported as 0%. Ki values for test compounds are determined using Graph-Pad Prism® curve-fitting software.

The target in assay [2] is T2, MC4r (Homo sapiens, UniProt P32245). The assay is described as follows: cAMP functional study in human MC4r expression system approximating maximal physiologic receptor densities. The class given is cell-based. Details: host or cells: TREx-293. Particulars: low receptor density human MC4r system. The protocol:
Assay for Agonist Activity. Accumulation of intracellular cAMP was examined as a measure of the ability of the peptides of the present invention to elicit a functional response in HEK-293 cells that express MC4-R. Confluent HEK-293 cells that express recombinant hMC4-R were detached from culture plates by incubation in enzyme-free cell dissociation buffer. Dispersed cells were suspended in Hanks' Balanced Salt Solution containing 10 mM HEPES (pH 7.5), 1 mM MgCl2, 1 mM glutamine, 0.5% albumin and 0.3 mM 3-isobutyl-1-methyl-xanthine (IBMX), a phosphodiesterase inhibitor. The cells were plated in 96-well plates at a density of 0.5×10^5 cells per well and pre-incubated for 10 minutes. Cells were exposed for 15 minutes at 37° C. to peptides of the present invention dissolved in DMSO (final DMSO concentration of 1%) at a concentration range of 0.05-5000 nM in a total assay volume of 200 μL. NDP-α-MSH was used as the reference agonist. cAMP levels were determined by an HTRF® cAMP cell-based assay system from Cisbio Bioassays utilizing cryptate-labeled anti-cAMP and d2-labeled cAMP, with plates read on a Perkin-Elmer Victor plate reader at […]. Data analysis was performed by nonlinear regression analysis with Graph-Pad Prism® software. The maximum efficacies of the test peptides of the present invention were compared to that achieved by the reference melanocortin agonist NDP-αMSH.
Low Receptor Density Systems. In functional studies preferably a human MC4r expression system approximating maximal human physiologic receptor densities is employed. In one aspect, a tetracycline-regulated mammalian expression system that uses regulatory elements from the E. coli Tn10-encoded tetracycline (Tet) resistance operon was employed (T-REx™ System, Invitrogen). By use of the T-REx™ System, expression of the gene of interest, the human MC4-R gene, was repressed in the absence of tetracycline or doxycycline and induced in the presence of tetracycline or doxycycline, with receptor density being dependent on the concentration of tetracycline or doxycycline. See generally Yao F. et al: Tetracycline repressor, tetR, rather than the tetR-mammalian cell transcription factor fusion derivatives, regulates inducible gene expression in mammalian cells. Hum. Gene Ther. 9:1939-1950 (1998), incorporated here by reference. Regulation was based on the binding of tetracycline or doxycycline, a derivative of tetracycline, to the Tet repressor and derepression of the promoter controlling expression of the human MC4-R gene. In general tetracycline or related regulators, such as tetracycline-derivatives, may be used to induce the gene expression. An inducible expression plasmid for expression of human MC4-R gene under the control of the strong human cytomegalovirus immediate-early (CMV) promoter and two tetracycline operator 2 (TetO2) sites was employed, together with a regulatory plasmid, pcDNA6/TR, which encodes the Tet repressor (TetR) under the control of the human SV40 promoter. Thus, expression of the human MC4-R gene from the inducible expression vector was controlled by the strong CMV promoter into which 2 copies of the tet operator 2 (TetO2) sequence had been inserted in tandem. The TetO2 sequences consisted of 2 copies of 19-nucleotide sequence separated by a 2 base pair spacer. Each 19 nucleotide TetO2 sequence served as the binding site for 2 molecules of the Tet repressor. The expression vector pcDNA4/TO/MC4R was introduced into TREx-293 (Invitrogen, R710-07), a cell line stably expressing the tetracycline repressor pcDNA6/TR using lipofectamin 2000 reagent (Invitrogen, 11668-019). Alternatively, both the expression vector and repressor are introduced into host cells by standard transformation or transfection methods.

The target of assay [3] is T2, MC4r. The assay is described as follows: Competitive inhibition binding assay, MC4r. Details: expressed in transfected cells; host or cells: HEK-293 (membrane homogenates). Particulars: binding studies. The protocol: as §1, §2
Competitive Binding Assay Using Eu-NDP-α-MSH. Alternatively, a competitive inhibition binding assay is performed employing Eu-NDP-α-MSH (PerkinElmer Life Sciences catalog No. AD0225) with determination by time-resolved fluorometry (TRF) of the lanthanide chelate. […] After incubation for 90 minutes at 37° C., the reaction was stopped by filtration over Acro Well 96-well filter plates (Pall Life Sciences). The filter plates were washed 4 times with 200 μL of ice-cold phosphate-buffered saline. DELFIA Enhancement solution (PerkinElmer Life Sciences) was added to each well. The plates were incubated on a shaker for 15 minutes and read at 340 nm excitation and 615 nm emission wavelengths. Each assay was conducted in duplicate and mean values were utilized. Ki values were determined by curve-fitting with Graph-Pad Prism® software using a one-site fixed-slope competition binding model.

T2 sequence (P32245 whole entry): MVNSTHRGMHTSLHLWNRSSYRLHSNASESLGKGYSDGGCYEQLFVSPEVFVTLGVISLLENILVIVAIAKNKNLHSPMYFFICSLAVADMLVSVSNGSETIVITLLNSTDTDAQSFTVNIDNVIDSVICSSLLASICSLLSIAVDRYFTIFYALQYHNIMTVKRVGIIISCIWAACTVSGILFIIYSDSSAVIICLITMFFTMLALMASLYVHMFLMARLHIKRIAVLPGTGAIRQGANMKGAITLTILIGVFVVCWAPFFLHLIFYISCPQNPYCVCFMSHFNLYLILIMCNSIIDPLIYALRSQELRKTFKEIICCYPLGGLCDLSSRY
T1 sequence (Q01726 whole entry): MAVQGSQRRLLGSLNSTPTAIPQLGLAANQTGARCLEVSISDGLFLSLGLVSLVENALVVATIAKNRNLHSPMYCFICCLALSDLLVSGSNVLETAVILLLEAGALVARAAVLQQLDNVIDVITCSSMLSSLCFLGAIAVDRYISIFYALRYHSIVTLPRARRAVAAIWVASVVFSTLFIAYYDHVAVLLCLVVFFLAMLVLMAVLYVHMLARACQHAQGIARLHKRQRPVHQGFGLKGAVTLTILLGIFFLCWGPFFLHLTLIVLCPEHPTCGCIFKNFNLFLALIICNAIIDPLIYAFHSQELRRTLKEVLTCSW

As for `CCNC(=O)N1CCC(N(CC(C)C)N2CCN(C(=O)[C@@H](Cc3ccc(Cl)cc3)NC(=O)C(C)(C)N)CC2)CC1` [Compound 7.8, 4-[[4-[(2R)-2-[(2-amino-2-methyl-propanoyl)amino]-3-(4-chlorophenyl)propanoyl]piperazin-1-yl]-isobutyl-amino]-N-ethyl-piperidine-1-carboxamide], the Ki in assay [1] was 0.15 µM; in assay [3] it was 0.006 µM. The same compound returned an EC50 in assay [2] of 0.052 µM. In addition, the Emax in assay [2] (read-out: relative efficacy, compared to NDP-α-MSH) is 28%.
